Patent US11311539B2, “Compositions and methods for treatment of fragile X syndrome” (Children's Hospital Medical Center, priority 2015, dated 2022)
Entries after “also recorded” stand apart in the source; their conditions may differ.

What was measured:
Fmr1 KO mice [1] = experiment: Audiogenic seizure susceptibility (120 dB siren); assay type: in vivo; conditions: oral gavage, acute, 30 min prior to testing, juvenile mice, VEH approximately 60%
Description: (§1) Throughout experiments in Fmr1 KO mice, we treated animals with 1 mg/kg AZD7325, 3 mg/kg AZD7325 or vehicle (VEH) by oral gavage to mimic the human exposure route. Juvenile mice were treated acutely and adult mice were treated chronically prior to and throughout behavior analysis.
(§2) Audiogenic seizure susceptibility in Fmr1 KO mice, which is thought to be the result of increased neuronal activity in response to sensory stimuli, peaks around the third week of life and manifests as wild running which is typically followed by tonic-clonic seizure. […] In adulthood, Fmr1 KO mice have abnormal motor responses to sensory stimuli compared to WT mice in an acoustic startle paradigm. […] This type of deficit in the VEH-treated Fmr1 KO mice is reminiscent of the exaggerated anxiety responses people with FXS commonly display.

Fmr1 KO mice [2] = experiment: Conditioned fear response to mild foot shock (cued portion); assay type: in vivo; conditions: both dose levels (1 and 3 mg/kg), oral gavage, KO mice vs WT
Description: as §1, §2

Fmr1 KO mice [3] = experiment: Novel object recognition paradigm; assay type: in vivo; conditions: low dose (1 mg/kg), oral gavage, KO mice vs KO+VEH
Description: as §1, §2
Based upon preclinical data in FXS implicating insufficient GABA(A) activity in the pathophysiology of the disorder combined with preclinical and human evidence (unpublished data) supporting the tolerability and effectiveness of improving aberrant behavior, 4-amino-8-(2-fluoro-6-methoxy-phenyl)-N-propyl-cinnoline-3-carboxamide is an ideal molecule to develop as a clinical treatment in humans with FXS.

Fmr1 KO mice [4] = experiment: Acoustic startle paradigm (whole body flinch, Vmax); assay type: in vivo; conditions: adult Fmr1 KO mice
Description: In adulthood, Fmr1 KO mice have abnormal motor responses to sensory stimuli compared to WT mice in an acoustic startle paradigm.
as §1, §2

FXS KO mice [5] = conditions: preclinical literature; cited from earlier work
FXS KO mice [6] = conditions: preclinical literature; cited from earlier work; remark: listed apart in the source
FXS KO mice [7] = conditions: literature; cited from earlier work
FXS KO mice [8] = conditions: literature; cited from earlier work; remark: listed apart in the source
FXS KO mice [9] = conditions: literature; cited from earlier work; remark: listed apart in the source

Compound: CCCNC(=O)c1nnc2c(-c3c(F)cccc3OC)cccc2c1N [AZD7325, 4-amino-8-(2-fluoro-6-methoxy-phenyl)-N-propyl-cinnoline-3-carboxamide]
- Fmr1 KO mice displaying wild running followed by seizure (Fmr1 KO mice [1]; high dose (3 mg/kg)): 0%
- Fmr1 KO mice displaying wild running followed by seizure (Fmr1 KO mice [1]; low dose (1 mg/kg)): 11%
- Conditioned fear response, cued portion of the test (Fmr1 KO mice [2]): normalizing this behavior in KO mice
- Object memory in novel object recognition (discrimination index) (Fmr1 KO mice [3]): attenuates deficits in object memory
- Object memory in novel object recognition (discrimination index) (Fmr1 KO mice [3]; listed as 4-amino-8-(2-fluoro-6-methoxy-phenyl)-N-propyl-cinnoline-3-carboxamide): attenuates deficits in object memory; also recorded: greater interest in the novel object
- Whole body flinching, low-level acoustic startle (Fmr1 KO mice [4]; 82 db white noise burst, 10 trial blocks, chronic low dose): significantly reduced whole body flinching
- Whole body flinch response, high level acoustic stimulus (Fmr1 KO mice [4]; 120 dB stimulus, chronic treatment): improves this response to WT levels

Compound: CC(=O)[C@H]1CC[C@H]2[C@@H]3CC[C@H]4C[C@H](O)CC[C@]4(C)[C@H]3C(=O)C[C@]12C [alphaxalone]
- Anxiety (FXS KO mice [5]): reductions in anxiety
- Audiogenic seizures (FXS KO mice [6]): rescue of audiogenic seizures

Compound: Oc1noc2c1CCNC2 [gaboxadol]
- Hyperactivity (FXS KO mice [7]): reduced hyperactivity
- Neuron excitability deficits in the amygdala (FXS KO mice [8]): restored neuron excitability deficits in the amygdala
- Prepulse inhibition (PPI) alterations (FXS KO mice [9]): reduced prepulse inhibition (PPI) alterations
